Results: ChEMBL document CHEMBL1208782, “Synthesis and pharmacological validation of a novel series of non-steroidal FXR agonists” (Bioorg Med Chem Lett, 2010)

Legend:
Format in all cases: functional, cell-based
[1] = target: T1, Retinoic acid receptor alpha (Homo sapiens, UniProt P10276); assay: Agonist activity at RARalpha-LBD expressed in HEK293 cells assessed as Gal4-DBD interaction by cellular mammalian one hybrid assay
T1 sequence (P10276 whole entry): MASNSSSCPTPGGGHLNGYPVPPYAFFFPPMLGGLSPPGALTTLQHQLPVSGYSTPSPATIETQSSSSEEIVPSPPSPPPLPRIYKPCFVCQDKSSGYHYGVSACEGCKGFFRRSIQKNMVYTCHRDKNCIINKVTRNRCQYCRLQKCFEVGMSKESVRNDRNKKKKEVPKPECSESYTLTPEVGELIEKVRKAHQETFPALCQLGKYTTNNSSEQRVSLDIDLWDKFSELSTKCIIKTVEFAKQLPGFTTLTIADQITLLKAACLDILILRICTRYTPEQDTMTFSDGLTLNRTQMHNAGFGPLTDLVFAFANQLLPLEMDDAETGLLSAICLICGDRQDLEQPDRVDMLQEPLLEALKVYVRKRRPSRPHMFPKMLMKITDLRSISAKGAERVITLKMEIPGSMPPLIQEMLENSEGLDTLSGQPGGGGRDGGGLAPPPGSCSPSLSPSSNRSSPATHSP

[2] = target: T2, Mineralocorticoid receptor (Homo sapiens, UniProt P08235); assay: Agonist activity at mineralocorticoid receptor-LBD expressed in HEK293 cells assessed as Gal4-DBD interaction by cellular mammalian one hybrid assay
T2 sequence (P08235 whole entry): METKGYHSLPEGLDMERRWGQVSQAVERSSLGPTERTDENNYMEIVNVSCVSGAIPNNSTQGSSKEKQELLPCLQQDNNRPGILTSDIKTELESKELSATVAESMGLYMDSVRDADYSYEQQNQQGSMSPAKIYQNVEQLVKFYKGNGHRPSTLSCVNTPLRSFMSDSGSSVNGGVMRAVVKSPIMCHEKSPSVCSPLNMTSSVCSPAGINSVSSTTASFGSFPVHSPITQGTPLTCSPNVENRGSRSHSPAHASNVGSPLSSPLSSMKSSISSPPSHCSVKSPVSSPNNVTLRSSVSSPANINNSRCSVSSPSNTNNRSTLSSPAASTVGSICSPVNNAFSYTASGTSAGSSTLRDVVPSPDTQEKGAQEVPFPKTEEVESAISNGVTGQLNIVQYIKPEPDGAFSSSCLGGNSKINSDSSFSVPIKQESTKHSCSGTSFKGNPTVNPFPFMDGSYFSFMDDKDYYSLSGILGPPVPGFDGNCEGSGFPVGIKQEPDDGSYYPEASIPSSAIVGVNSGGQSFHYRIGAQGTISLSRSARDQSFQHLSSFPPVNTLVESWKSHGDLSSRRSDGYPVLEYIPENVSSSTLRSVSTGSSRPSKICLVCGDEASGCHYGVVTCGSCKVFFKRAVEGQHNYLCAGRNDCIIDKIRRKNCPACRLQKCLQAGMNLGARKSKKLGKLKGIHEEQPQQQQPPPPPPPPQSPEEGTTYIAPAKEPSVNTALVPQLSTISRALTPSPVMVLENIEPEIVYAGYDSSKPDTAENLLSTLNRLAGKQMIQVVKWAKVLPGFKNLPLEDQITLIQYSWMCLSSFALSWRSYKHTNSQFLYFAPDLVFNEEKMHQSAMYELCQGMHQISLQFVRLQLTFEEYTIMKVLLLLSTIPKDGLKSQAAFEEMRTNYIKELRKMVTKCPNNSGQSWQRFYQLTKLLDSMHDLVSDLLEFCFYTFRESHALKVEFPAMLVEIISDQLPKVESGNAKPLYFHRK

[3] = target: T3, Nuclear receptor subfamily 1 group I member 3 (Homo sapiens, UniProt Q14994); assay: Agonist activity at CAR-LBD expressed in HEK293 cells assessed as Gal4-DBD interaction by cellular mammalian one hybrid assay
T3 sequence (Q14994 whole entry): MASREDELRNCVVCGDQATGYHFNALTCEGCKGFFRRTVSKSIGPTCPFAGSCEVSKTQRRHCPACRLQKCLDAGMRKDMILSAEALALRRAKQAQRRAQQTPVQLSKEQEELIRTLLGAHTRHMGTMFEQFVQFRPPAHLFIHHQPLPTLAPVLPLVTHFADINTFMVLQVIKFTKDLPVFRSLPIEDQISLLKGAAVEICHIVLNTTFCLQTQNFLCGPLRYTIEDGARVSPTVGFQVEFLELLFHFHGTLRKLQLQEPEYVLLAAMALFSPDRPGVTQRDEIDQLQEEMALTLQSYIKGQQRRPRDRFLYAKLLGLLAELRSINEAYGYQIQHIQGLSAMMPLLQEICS

[4] = target: T4, Oxysterols receptor LXR-beta (Homo sapiens, UniProt P55055); assay: Agonist activity at LXRbeta-LBD expressed in HEK293 cells assessed as Gal4-DBD interaction by cellular mammalian one hybrid assay
T4 sequence (P55055 whole entry): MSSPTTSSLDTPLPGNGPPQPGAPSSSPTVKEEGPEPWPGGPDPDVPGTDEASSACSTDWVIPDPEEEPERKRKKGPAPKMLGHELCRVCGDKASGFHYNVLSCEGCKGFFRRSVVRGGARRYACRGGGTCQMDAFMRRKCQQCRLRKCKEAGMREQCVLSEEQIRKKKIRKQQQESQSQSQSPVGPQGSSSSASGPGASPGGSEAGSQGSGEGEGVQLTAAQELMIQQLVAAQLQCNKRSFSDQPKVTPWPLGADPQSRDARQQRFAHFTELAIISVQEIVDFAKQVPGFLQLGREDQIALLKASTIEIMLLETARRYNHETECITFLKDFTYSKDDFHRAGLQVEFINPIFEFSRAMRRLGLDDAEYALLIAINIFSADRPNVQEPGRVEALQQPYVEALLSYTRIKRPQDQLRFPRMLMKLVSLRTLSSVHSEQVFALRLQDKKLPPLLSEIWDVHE

[5] = target: T5, Thyroid hormone receptor alpha (Homo sapiens) (UniProt P10827); assay: Agonist activity at TRalpha-LBD expressed in HEK293 cells assessed as Gal4-DBD interaction by cellular mammalian one hybrid assay relative to thyroid
T5 sequence (whole entry): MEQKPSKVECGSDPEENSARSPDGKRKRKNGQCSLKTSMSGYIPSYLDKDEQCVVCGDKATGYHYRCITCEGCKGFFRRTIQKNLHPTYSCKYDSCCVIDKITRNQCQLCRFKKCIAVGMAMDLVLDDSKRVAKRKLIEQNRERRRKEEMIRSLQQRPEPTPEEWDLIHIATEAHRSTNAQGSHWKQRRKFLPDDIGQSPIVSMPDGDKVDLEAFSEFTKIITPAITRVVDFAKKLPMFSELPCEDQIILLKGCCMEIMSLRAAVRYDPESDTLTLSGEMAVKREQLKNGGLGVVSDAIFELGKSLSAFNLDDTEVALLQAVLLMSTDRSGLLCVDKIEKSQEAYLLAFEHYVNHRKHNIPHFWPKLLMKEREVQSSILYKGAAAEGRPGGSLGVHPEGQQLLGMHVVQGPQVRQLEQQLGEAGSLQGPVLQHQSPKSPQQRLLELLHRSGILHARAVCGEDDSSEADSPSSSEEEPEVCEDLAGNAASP

CN(Cc1ccc(C(=O)O)cc1)c1ccc(OCc2c(-c3c(Cl)cccc3Cl)noc2C2CC2)nc1C(F)(F)F
EC50 [1]: > 10 µM
EC50 [2]: > 10 µM
EC50 [3]: > 10 µM
EC50 [4]: > 10 µM
Efficacy [5]: 0%

CN(Cc1cccc(C(=O)O)c1)c1ccc(OCc2c(-c3c(Cl)cccc3Cl)noc2C2CC2)nc1C(F)(F)F
EC50 [1]: > 10 µM
EC50 [2]: > 10 µM
EC50 [3]: > 10 µM
EC50 [4]: > 10 µM
Efficacy [5]: 0%

CC(C)c1onc(-c2c(Cl)cccc2Cl)c1COc1ccc(N(C)Cc2ccc(C(=O)O)cc2)c(C(F)(F)F)n1
EC50 [1]: > 10 µM
EC50 [2]: > 10 µM
EC50 [3]: > 10 µM
EC50 [4]: > 10 µM
Efficacy [5]: 0%
